Results taken from patent US20090016990A1, “Antimicrobial Compositions” (priority 2007, published 2009).
Values belong to the molecule of their own block, whether it stands above or below them.

Experiments:
[1] = tested on: P aeruginosa 10145; experiment: Synergy of Zosteric Acid (ZA) with HOCL, MIC in M9GY; assay type: cell-based
[2] = tested on: P aeruginosa 10145; experiment: Synergy of Zosteric Acid (ZA) with Kathon, MIC in M9GY; assay type: cell-based; conditions: ZA alone
[3] = tested on: Pseudomonas aeruginosa ATCC 27853; experiment: MIC assay, planktonic growth, MBEC bioFILM PA panel
Protocol: The MBEC bioFILM PA panel is designed for use in determining antimicrobial agent susceptibility of both planktonic and biofilm Pseudomonas aeruginosa.
From this test, the minimum antibiotic concentration—in the presence and absence of a compound of the present invention—that will inhibit bacterial growth in solution (“MIC Assay”) is determined. The minimum antibiotic concentration—in the presence and absence of a compound of the present invention—that will prevent attachment of bacteria to a test surface (“MBEC Assay”) is determined. Approximately 1,000,000-10,000,000 bacteria attach in the absence of antibiotics; lesser numbers attach in the presence of antibiotics.
MBEC bioFilm PA panel—Panel wells are inoculated with planktonic Pseudomonas aeruginosa using a 95 peg inoculation lid. Panels and pegged lids are then incubated at 35° C. for 18 h. Planktonic susceptibility and resistance is determined by measuring inhibition and growth in the presence of antimicrobial agents after incubation. Biofilm susceptibility and resistance is determined by measuring inhibition and growth after peg sonication, biofilm bacteria recovery, then incubation for additional 18-24 h at 35° C.

[4] = tested on: Pseudomonas aeruginosa ATCC 27853; experiment: MBEC assay, biofilm inhibition (prevention of biofilm formation), MBEC bioFILM PA panel; assay type: cell-based
[5] = HOCL with ZA (Qza) 250 ppm, M9GY
[6] = HOCL with ZA (Qza) 500 ppm, M9GY
[7] = HOCL with ZA (Qza) 1000 ppm, M9GY
[8] = HOCL with ZA (Qza) 2500 ppm, M9GY
[9] = HOCL with ZA (Qza) 5000 ppm, M9GY
[10] = HOCL with ZA (Qza) 7500 ppm, M9GY
[11] = HOCL with ZA (Qza) 10000 ppm, M9GY
[12] = ZA alone, M9GY, highest value tested, used for SI calculations

MIC at 24 hours, Qhocl ([1]; HOCL alone, M9GY): 40 ppm
MIC at 48 hours, Qhocl ([1]; HOCL alone, M9GY): 40 ppm
MIC at 24 hours, Qhocl ([1]; HOCL with ZA (Qza) 0 ppm, M9GY): 50 ppm
MIC at 48 hours, Qhocl ([1]; HOCL with ZA (Qza) 0 ppm, M9GY): 60 ppm
MIC at 24 hours, Qhocl [1, 5]: 30 ppm
MIC at 48 hours, Qhocl [1, 5]: 30 ppm
MIC at 24 hours, Qhocl [1, 6]: 50 ppm
MIC at 48 hours, Qhocl [1, 6]: 50 ppm
MIC at 24 hours, Qhocl [1, 7]: 50 ppm
MIC at 48 hours, Qhocl [1, 7]: 50 ppm
MIC at 24 hours, Qhocl [1, 8]: 50 ppm
MIC at 48 hours, Qhocl [1, 8]: 50 ppm
MIC at 24 hours, Qhocl [1, 9]: 40 ppm
MIC at 48 hours, Qhocl [1, 9]: 40 ppm
MIC at 24 hours, Qhocl [1, 10]: 40 ppm
MIC at 48 hours, Qhocl [1, 10]: 50 ppm
MIC at 24 hours, Qhocl [1, 11]: 60 ppm
MIC at 48 hours, Qhocl [1, 11]: 60 ppm
Compound: OCl [HOCl]
SI-HOCL, 24 hours ([1]; HOCL with ZA (Qza) 0 ppm, M9GY): 1.25
SI-HOCL, 48 hours ([1]; HOCL with ZA (Qza) 0 ppm, M9GY): 1.5
SI-HOCL, 24 hours [1, 5]: 0.775
SI-HOCL, 48 hours [1, 5]: 0.775
SI-HOCL, 24 hours [1, 6]: 1.3
SI-HOCL, 48 hours [1, 6]: 1.3
SI-HOCL, 24 hours [1, 7]: 1.35
SI-HOCL, 48 hours [1, 7]: 1.35
SI-HOCL, 24 hours [1, 8]: 1.5
SI-HOCL, 48 hours [1, 8]: 1.5
SI-HOCL, 24 hours [1, 9]: 1.5
SI-HOCL, 48 hours [1, 9]: 1.5
SI-HOCL, 24 hours [1, 10]: 1.75
SI-HOCL, 48 hours [1, 10]: 2
SI-HOCL, 24 hours [1, 11]: 2.5
SI-HOCL, 48 hours [1, 11]: 2.5

QZA, MIC at 24 hours (ppm) ([2]; 24 hours): 10,000 ppm
QZA, MIC at 48 hours (ppm) ([2]; 48 hours): 10,000 ppm
MIC at 24 hours, QZA [1, 12]: 10,000 ppm
MIC at 48 hours, QZA [1, 12]: 10,000 ppm
Compound: O=C(O)/C=C/c1ccc(OS(=O)(=O)O)cc1 [ZA, Zosteric Acid]
MIC for ZA ([1]; table note, 10,000 ppm was the highest value tested): MIC for ZA is greater than 10,000 ppm, but since it was the highest value tested it was used for SI calculations.

Compound: CCC(C)(C)c1ccc(OS(=O)(=O)Cl)cc1 [compound 7]
MIC values for several antibiotics in the presence of the compound ([3]; compound at 0.01%): reduced
number of the 47 antibiotics or antibiotic combinations enhanced in activity ([4]; of 47): 10
Bacterial attachment to the test surfaces in the presence of the compound ([4]; with antibiotics): completely inhibited at lower concentrations of antibiotics

Compound: CC(C)(C)c1ccc(OS(=O)(=O)Cl)cc1 [compound 9]
MIC values of antibiotics in the presence of the compound ([3]; antibiotics become less effective): increased
